Entries after “also recorded” stand apart in the source; their conditions may differ. Where two headings read alike, the source gives them in different places.
Experiment: Plasma pharmacokinetics of Compound 1 and metabolite 1-7 (LC-MS/MS) in Parts C, D and E
Type: in vivo, human
Method: Doses were administered as the Compound 2 salt base. The free base Compound 1 equivalent is often given in parenthesis.
Part C was a randomized, double-blind, placebo-controlled MAD study divided into three cohorts. […] The dose escalation only proceeded following satisfactory review of the data.
HCV-infected patients were treatment-naïve with HCV RNA ≥5 log 10 IU/mL. HCV RNA was quantified using COBAS® AmpliPrep TaqMAN® v2.0 with LLQ of 15 IU/mL. Plasma drug levels were measured using LC-MS/MS. […] Cirrhosis was confirmed by prior liver biopsy or Fibroscan >12.5 kPa. […] Mean ages of enrolled subjects were 44, 39, and 56 years in the non-cirrhotic GT1b 600 mg dose cohort, non-cirrhotic GT3 cohort, and the cirrhotic cohort, respectively.
Plasma levels of metabolite 1-7 were measured using LC-MS/MS.

[1] = Part C, 150 to 600 mg Compound 2

## C[C@@]1(F)[C@H](O)[C@@H](CO)O[C@H]1n1cnc2c(=O)[nH]c(N)nc21 [Metabolite 1-7, 2-amino-9-((2R,3R,4R,5R)-3-fluoro-4-hydroxy-5-(hydroxymethyl)-3-methyltetrahydrofuran-2-yl)-1,9-dihydro-6H-purin-6-one]
600 mg QD of Compound 2, Parts C/D vs Part E
  PK in cirrhotic compared with non-cirrhotic subjects: similar; also recorded: comparable
NC subjects, based on metabolite 1-7 trough levels
  time at which steady state was reached: after the third or fourth dose; also recorded: day 3 or 4
Part C
  higher trough upon reaching steady state: 50%-60%
  time of peak formation after dosing: approximately 6 hours
[1]
  dose proportionality of plasma exposure (peak and total): dose proportional from 150 to 300 mg and less than dose proportional from 300 mg to 600 mg
  dose proportionality of trough levels: mostly dose proportional
Part C, NC GT1b, 150 mg/d Compound 2 QD, n=6
  AUC Day 1 (AUC, for Metabolite 1-7): 800 ± 213 ng/mLxh
Part C, NC GT1b, 300 mg/d Compound 2 QD, n=6
  AUC Day 1 (AUC, for Metabolite 1-7): 1414 ± 220 ng/mLxh
Part C, NC GT1b, 600 mg/d Compound 2 QD, n=6
  AUC Day 1 (AUC, for Metabolite 1-7): 2204 ± 486 ng/mLxh
Part C, NC GT1b, 600 mg/d Compound 2 QD, n=6, trough after the first dose
  C24 h Day 1: 27.5 ± 5.21 ng/mL
Part D, NC GT3, 600 mg/d Compound 2 QD, n=6
  AUC Day 1 (AUC, for Metabolite 1-7): 2253 ± 595 ng/mLxh
Part D, NC GT3, 600 mg/d Compound 2 QD, n=6, trough after the first dose
  C24 h Day 1: 30.1 ± 10.9 ng/mL
Part E, Child-Pugh A cirrhotic, 600 mg/d Compound 2 QD, n=6
  AUC Day 1 (AUC, for Metabolite 1-7): 2625 ± 873 ng/mLxh
Part E, Child-Pugh A cirrhotic, 600 mg/d Compound 2 QD, n=6, trough after the first dose
  C24 h Day 1: 41.6 ± 12.9 ng/mL
Cirrhotic patients, 600 mg of Compound 2
  steady state plasma trough level: 45.7 ng/mL
human, plasma, 150 mg, AUC of metabolite 1-7, range for the dose, 150 mg Compound 2 QD 7 days (FIG. 7)
  AUC: 397 to 1430 ng·h/mL
human, plasma, 300 mg, AUC of metabolite 1-7, range for the dose, 300 mg Compound 2 QD 7 days (FIG. 7)
  AUC: 1300 to 2580 ng·h/mL
human, plasma, 600 mg, AUC of metabolite 1-7, range for the dose, 600 mg Compound 2 QD 7 days (FIG. 7)
  AUC: 2250 to 5380 ng·h/mL
human, plasma, 600 mg, metabolite 1-7 exposure (AUC) achieved, 600 mg Compound 2 QD, all subjects, cirrhotic or non-cirrhotic
  AUC: > 2000 ng·h/mL
human, plasma, oral, 150 mg/d, Part C, NC GT1b, 150 mg/d Compound 2 QD, n=6, read-out: C24 h Day 1
  concentration at 24 h: 8.08 ± 3.48 ng/mL
human, plasma, oral, 150 mg/d, Part C, NC GT1b, 150 mg/d Compound 2 QD, n=6, read-out: Cmax Day 1
  Cmax: 75.6 ± 15.4 ng/mL
human, plasma, oral, 150 mg/d, steady state = mean of C24 at 72, 96, 120, 144 and 168 h, Part C, NC GT1b, 150 mg/d Compound 2 QD, n=6, read-out: C24 h SS
  concentration at 24 h: 12.8 ± 4.45 ng/mL
human, plasma, oral, 150 mg/d, steady state, Part C, NC GT1b, 150 mg/d Compound 2 QD, n=6, read-out: Cmax SS
  Cmax: 81.1 ± 33.9 ng/mL
human, plasma, oral, 150 mg/d, steady state, Part C, NC GT1b, 150 mg/d Compound 2 QD, n=6, read-out: T1/2 SS (converted)
  half-life: 12.5 h
human, plasma, oral, 300 mg/d, Part C, NC GT1b, 300 mg/d Compound 2 QD, n=6, read-out: Cmax Day 1
  Cmax: 123 ± 16.6 ng/mL
human, plasma, oral, 300 mg/d, steady state = mean of C24 at 72, 96, 120, 144 and 168 h, Part C, NC GT1b, 300 mg/d Compound 2 QD, n=6, read-out: C24 h SS
  concentration at 24 h: 26.1 ± 7.56 ng/mL
human, plasma, oral, 300 mg/d, steady state, Part C, NC GT1b, 300 mg/d Compound 2 QD, n=6, read-out: Cmax SS
  Cmax: 220 ± 203 ng/mL
human, plasma, oral, 300 mg/d, steady state, Part C, NC GT1b, 300 mg/d Compound 2 QD, n=6, read-out: T1/2 SS (converted)
  half-life: 24.5 h
human, plasma, oral, 600 mg/d, Part C, NC GT1b, 600 mg/d Compound 2 QD, n=6, read-out: Cmax Day 1
  Cmax: 197 ± 57.1 ng/mL
human, plasma, oral, 600 mg/d, Part C, NC GT1b, 600 mg/d Compound 2 QD, n=6, trough after the first dose, read-out: C24 h Day 1
  concentration at 24 h: 27.5 ng/mL
human, plasma, oral, 600 mg/d, Part D, NC GT3, 600 mg/d Compound 2 QD, n=6, read-out: Cmax Day 1
  Cmax: 195 ± 42.9 ng/mL
human, plasma, oral, 600 mg/d, Part D, NC GT3, 600 mg/d Compound 2 QD, n=6, trough after the first dose, read-out: C24 h Day 1
  concentration at 24 h: 30.1 ng/mL
human, plasma, oral, 600 mg/d, Part E, Child-Pugh A cirrhotic, 600 mg/d Compound 2 QD, n=6, read-out: Cmax Day 1
  Cmax: 201 ± 68.1 ng/mL
human, plasma, oral, 600 mg/d, Part E, Child-Pugh A cirrhotic, 600 mg/d Compound 2 QD, n=6, trough after the first dose, read-out: C24 h Day 1
  concentration at 24 h: 41.6 ng/mL
human, plasma, oral, 600 mg/d, steady state = mean of C24 at 72, 96, 120, 144 and 168 h, Part C, NC GT1b, 600 mg/d Compound 2 QD, n=6, read-out: C24 h SS
  concentration at 24 h: 46.9 ± 15.5 ng/mL
human, plasma, oral, 600 mg/d, steady state = mean of C24 at 72, 96, 120, 144 and 168 h, Part D, NC GT3, 600 mg/d Compound 2 QD, n=6, read-out: C24 h SS
  concentration at 24 h: 37.8 ± 11.4 ng/mL
human, plasma, oral, 600 mg/d, steady state = mean of C24 at 72, 96, 120, 144 and 168 h, Part E, Child-Pugh A cirrhotic, 600 mg/d Compound 2 QD, n=6, read-out: C24 h SS
  concentration at 24 h: 69.9 ± 18.5 ng/mL
human, plasma, oral, 600 mg/d, steady state, Part C, NC GT1b, 600 mg/d Compound 2 QD, n=6, read-out: Cmax SS
  Cmax: 233 ± 42.9 ng/mL
human, plasma, oral, 600 mg/d, steady state, Part C, NC GT1b, 600 mg/d Compound 2 QD, n=6, read-out: T1/2 SS (converted)
  half-life: 28.9 h
human, plasma, oral, 600 mg/d, steady state, Part D, NC GT3, 600 mg/d Compound 2 QD, n=6, read-out: Cmax SS
  Cmax: 263 ± 104 ng/mL
human, plasma, oral, 600 mg/d, steady state, Part D, NC GT3, 600 mg/d Compound 2 QD, n=6, read-out: T1/2 SS (converted)
  half-life: 27.9 h
human, plasma, oral, 600 mg/d, steady state, Part E, Child-Pugh A cirrhotic, 600 mg/d Compound 2 QD, n=6, read-out: T1/2 SS (converted)
  half-life: 24.4 h
human, plasma, oral, 600 mg/d, steady state, Part E, Child-Pugh A cirrhotic, 600 mg/d Compound 2 QD, n=6, read-out: Tmax SS
  Tmax: 6 h
human, plasma, oral, Part C, read-out: half-life
  half-life: 13 to 30 h
In vivo
  food effect on total and trough exposure: No food effect
Steady state, Part C, NC GT1b, 150 mg/d Compound 2 QD, n=6
  AUC SS (AUC, for Metabolite 1-7): 962 ± 409 ng/mLxh
Steady state, Part C, NC GT1b, 300 mg/d Compound 2 QD, n=6
  AUC SS (AUC, for Metabolite 1-7): 1828 ± 453 ng/mLxh
Steady state, Part C, NC GT1b, 600 mg/d Compound 2 QD, n=6
  AUC SS (AUC, for Metabolite 1-7): 2839 ± 572 ng/mLxh
Steady state, Part D, NC GT3, 600 mg/d Compound 2 QD, n=6
  AUC SS (AUC, for Metabolite 1-7): 3117 ± 1048 ng/mLxh
Steady state, Part E, Child-Pugh A cirrhotic, 600 mg/d Compound 2 QD, n=6
  AUC SS (AUC, for Metabolite 1-7): 3569 ± 1214 ng/mLxh
Subjects with cirrhosis
  time at which steady state was reached: day 5; also recorded: after the fifth dose

From patent US11690860B2, “Treatment of HCV infected patients with cirrhosis” (Atea Pharmaceuticals, Inc., priority 2018, dated 2023)
